Test results published in patent US20230202973A1, “BARNESIN A, DERIVATIVES AND USES THEREOF” (Leibniz-Institut Für Naturstoff-Forschung Und …, priority 2018, published 2023).

Assay type: in vitro ADME
Conditions: 0 min, pH 7.4
Experimental: The liver is the main organ of drug metabolism in the body. Subcellular fractions such as liver microsomes are useful in vitro models of hepatic clearance as they contain many of the drug metabolising enzymes found in the liver. Liver microsomes are subcellular fractions which contain membrane bound drug metabolising enzymes. The microsomes are incubated with the test compound at 37° C. in the presence of the co-factors, which initiates the reaction. The reaction is terminated by the addition of organic solvents containing internal standard. Following centrifugation, the supernatant is analysed on the LC-MS/MS. The disappearance of test compound is monitored over certain time period. Here, a microsome stability assay was used to investigate the metabolism of the compounds; using this assay it is possible to measure in vitro the intrinsic clearance or to identify metabolites formed. For a standard assay the following solutions were used: 360 μL Microsomal solution (1.1 mg/mL in phosphate buffer), 360 μL NADP-regeneration mix (containing NADP (10 mM), MgCl2 (50 mM), glucose-6-phosphate (50 mM), glucose-6-phosphate dehydrogenase (50 U/ml)) and 40 μL phosphate buffer (100 mM, pH 7.4). […] 5 uL of each sample was injected to a UPLC/HRMS system and the peak areas of the extracted ion chromatograms were determined

O=C(O)Cc1ccccc1Nc1c(Cl)cccc1Cl [Diclo, Diclofenac]
Area rel. [%], PC: 100.0%
